We go through 9 compounds from patent publication US5569598A (Lucky Limited Co., priority 1993, dated 1996).

In series [1] the test system is aminopeptidase. The experiment in a line: Substrate specificity of the aminopeptidase (paranitroanilide substrates). The following applies: substrate 10 mM, 1 unit aminopeptidase, 100 mM Tris buffer pH 8.0, 37° C.; activity to leucine-paranitroanilide as 100%. In kind it is biochemical, Streptomyces thermonitrificans. The source says:
(§1) Enzymol., 19, 514-521(1970).
The substrate specificity of the aminopeptidase was examined as follows. […] The reaction time was regulated in accordance with the substrate so that paranitroanilide is produced in a fixed rate.

Series [2] relates to aminopeptidase. The experiment in a line: Effect of orthophenanthroline on the enzyme activity. In kind it is biochemical, Streptomyces thermonitrificans. The settings on record: 37° C., 1 minute, 0 mM = 100.
From the text: as §1

For series [3] the following is noted: WHO-supplied reference, literature value; cited from earlier work.

Residues, ends and D or L forms follow the SMILES beside them. *: point of attachment. pNA = O=[N+]([O-])c1ccc(N*)cc1

Turning to `CC(C)C[C@H](N)C(=O)Nc1ccc([N+](=O)[O-])cc1` [leucine-paranitroanilide], in the series with aminopeptidase [1], the “Activity(%) of the aminopeptidase according to the substrate” value (from here on “Activity(%) … to the substrate”) is given as 100%.

Consider `CSCC[C@H](N)C(=O)Nc1ccc([N+](=O)[O-])cc1` [methionine-paranitroanilide], for which the “Activity(%) … to the substrate” value with aminopeptidase [1] was determined as 3.60%.

In the case of `NCC(=O)N1CCC[C@H]1C(=O)Nc1ccc([N+](=O)[O-])cc1` [glycine-proline-paranitroanilide] (H-Gly-Pro-pNA), the “Activity(%) … to the substrate” value in the series on aminopeptidase [1] was 0.80%.

As for `C[C@H](N)C(=O)Nc1ccc([N+](=O)[O-])cc1` [alanine-paranitroanilide], the “Activity(%) … to the substrate” value in the series on aminopeptidase [1] came out at 0.60%.

With `NCC(=O)N[C@@H](Cc1ccccc1)C(=O)Nc1ccc([N+](=O)[O-])cc1` [glycine-phenylalanine-paranitroanilide] (H-Gly-Phe-pNA), the “Activity(%) … to the substrate” value with aminopeptidase [1] is 0.11%.

Take `NCC(=O)Nc1ccc([N+](=O)[O-])cc1` [glycine-paranitroanilide]: the “Activity(%) … to the substrate” value in the series with aminopeptidase [1] worked out at 0.04%.

For the compound `c1cnc2c(c1)ccc1cccnc12` [orthophenanthroline], the “Activity(%)” value with aminopeptidase [2] (orthophenanthroline 1 mM) turned out to be 27%; in the series on aminopeptidase [2] (orthophenanthroline 5 mM) it was 2%.

As for `NCCCC[C@H](N)C(=O)Nc1ccc([N+](=O)[O-])cc1` [lysine-paranitroanilide], the “Activity(%) … to the substrate” value in the series with aminopeptidase [1] was found to be 0.03%.

In the case of “pituitary gland-derivedhuman growth hormone: pituitary gland-derived human growth hormone supplied by World Health Organization”, the potency in series [3] was 2.5 IU/mg.
